T/C data for 21 molecules are collected here from PubChem BioAssay AID330 (DTP/NCI, 2004).

Several values for one entry are separate records, joined by “and”; a condition that tells them apart may be missing. Identical values can stand only once. Inconclusive results and toxic doses are left out.

This experiment deals with P388 leukemia ip, CD2F1 mice, survival T/C. In words: NCI In Vivo Anticancer Drug Screen. Data for tumor model P388 Leukemia (intraperitoneal) in CD2F1 (CDF1) mice. The conditions noted are these: endpoint: median survival time, higher = longer survival. An outline of the steps: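 Mice carrying the transplanted tumor received test compound or vehicle. Survival was recorded in each group, and the value is the treated-group measurement divided by that of the vehicle-treated control group.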

The mark [1] stands for this setting: dose: 50.0 mg/kg/injection, schedule: Q01DX009 (ip), vehicle: saline with Tween-80.
Where [2] appears, read: dose: 100.0 mg/kg/injection, schedule: Q01DX009 (ip), vehicle: saline with Tween-80.
Where [3] appears, read: dose: 200.0 mg/kg/injection, schedule: Q01DX009 (ip), vehicle: saline with Tween-80.
Setting [4] is: dose: 100.0 mg/kg/injection, schedule: Q01DX009 (ip), vehicle: Klucel (hydroxypropylcellulose) (HPC).
[5] abbreviates: dose: 200.0 mg/kg/injection, schedule: Q01DX009 (ip), vehicle: Klucel (hydroxypropylcellulose) (HPC).
The mark [6] stands for this setting: dose: 25.0 mg/kg/injection, schedule: Q01DX009 (ip), vehicle: other.
Setting [7] is: dose: 50.0 mg/kg/injection, schedule: Q01DX009 (ip), vehicle: other.
Setting [8] is: dose: 100.0 mg/kg/injection, schedule: Q01DX009 (ip), vehicle: other.
Where [9] appears, read: dose: 50.0 mg/kg/injection, schedule: Q01DX005 (ip), vehicle: saline with Tween-80.
Setting [10] is: dose: 100.0 mg/kg/injection, schedule: Q01DX005 (ip), vehicle: saline with Tween-80.
The mark [11] stands for this setting: dose: 100.0 mg/kg/injection, schedule: Q01DX001 (ip), vehicle: saline with Tween-80.
The mark [12] stands for this setting: dose: 200.0 mg/kg/injection, schedule: Q01DX001 (ip), vehicle: saline with Tween-80.

Regarding `O=C(O)C(Cc1ccc(O)cc1)NS(=O)(=O)Cc1ccccc1` (stereo not drawn), the T/C (dose: 100.0 mg/kg/injection, schedule: Q01DX009 (ip), vehicle: DMSO) was 99 % of control and the T/C (dose: 200.0 mg/kg/injection, schedule: Q01DX009 (ip), vehicle: DMSO) was 92 % of control.
Turning to `CC1CCC(C)N1P(=O)(N1CC1)N1CC1` (stereo not drawn), the T/C (dose: 6.25 mg/kg/injection, schedule: Q04DX003 (ip), vehicle: saline) is 108 % of control; the T/C (dose: 12.5 mg/kg/injection, schedule: Q01DX009 (ip), vehicle: saline) is 110 % of control; the T/C (dose: 25.0 mg/kg/injection, schedule: Q01DX009 (ip), vehicle: saline) is 90 % of control; the T/C (dose: 25.0 mg/kg/injection, schedule: Q04DX003 (ip), vehicle: saline) was 160 % of control and 200 % of control; the T/C (dose: 50.0 mg/kg/injection, schedule: Q04DX003 (ip), vehicle: saline) was 155 % of control.
For `CC(C)(C)CC(C)(C)c1ccc(OCc2ccc(Cl)cc2)cc1`, the T/C is 100 % of control under setting [1], 100 % of control under setting [2] and 98 % of control under setting [3].
Take `Cn1c(=O)oc2c(Br)cc(Br)cc21`: the T/C runs as follows: (dose: 50.0 mg/kg/injection, schedule: Q04DX002 (ip), vehicle: Klucel (hydroxypropylcellulose) (HPC)) 101 % of control; (dose: 100.0 mg/kg/injection, schedule: Q04DX002 (ip), vehicle: Klucel (hydroxypropylcellulose) (HPC)) 104 % of control; (dose: 200.0 mg/kg/injection, schedule: Q04DX002 (ip), vehicle: Klucel (hydroxypropylcellulose) (HPC)) 101 % of control.
Regarding `COc1ccc2c(c1OC)C(C(Cl)(Cl)Cl)N1CCc3cc4c(cc3C1=C2)OCO4` (stereo not drawn), the T/C reads like this: under setting [1], 93 % of control; under setting [2], 90 % of control; under setting [3], 92 % of control.
As for `O=NNc1cccnc1Cl`, the T/C reads like this: (dose: 1.56 mg/kg/injection, schedule: Q01DX009 (ip), vehicle: water) 110 % of control; (dose: 3.12 mg/kg/injection, schedule: Q01DX009 (ip), vehicle: water) 102 % of control and 108 % of control; (dose: 6.25 mg/kg/injection, schedule: Q01DX009 (ip), vehicle: water) 99 % of control and 98 % of control; (dose: 12.5 mg/kg/injection, schedule: Q01DX009 (ip), vehicle: water) 107 % of control and 110 % of control; (dose: 25.0 mg/kg/injection, schedule: Q01DX009 (ip), vehicle: water) 107 % of control and 117 % of control; (dose: 50.0 mg/kg/injection, schedule: Q01DX009 (ip), vehicle: water) 105 % of control.
As to `Cc1cc(C)n(C(N)=NC(=O)c2ccccc2)n1`, the T/C reads like this: (dose: 50.0 mg/kg/injection, schedule: Q01DX009 (ip), vehicle: Klucel (hydroxypropylcellulose) (HPC)) 104 % of control and 106 % of control; under setting [4], 100 % of control; under setting [5], 109 % of control.
Consider `COC(=O)C(Br)CN1C(=O)c2ccccc2C1=O` (stereo not drawn), for which the T/C under setting [6] is 102 % of control; the T/C under setting [7] was 101 % of control; the T/C under setting [8] was 106 % of control; the T/C (dose: 200.0 mg/kg/injection, schedule: Q01DX009 (ip), vehicle: other) was 104 % of control; the T/C (dose: 400.0 mg/kg/injection, schedule: Q01DX009 (ip), vehicle: other) was 104 % of control.
In the case of `O=C(NCCN1CCNCC1)c1ccc(Cl)cc1`, the T/C is 97 % of control (dose: 60.0 mg/kg/injection, schedule: Q01DX005 (ip), vehicle: saline with Tween-80); 92 % of control (dose: 120.0 mg/kg/injection, schedule: Q01DX005 (ip), vehicle: saline with Tween-80); 93 % of control (dose: 240.0 mg/kg/injection, schedule: Q01DX005 (ip), vehicle: saline with Tween-80).
Consider `COc1cccc2c1C(=O)c1c(O)c3c(c(O)c1C2=O)C[C@@](O)(/C(C)=N/NC(=O)c1ccc(Cl)c(Cl)c1)C[C@@H]3OC1CC(N)C(O)C(C)O1` (stereo partly drawn), for which the T/C was 117 % of control (dose: 0.12 mg/kg/injection, schedule: Q01DX009 (ip), vehicle: water); 157 % of control (dose: 0.5 mg/kg/injection, schedule: Q01DX009 (ip), vehicle: water); 166 % of control (dose: 1.0 mg/kg/injection, schedule: Q01DX009 (ip), vehicle: water); 155 % of control and 175 % of control (dose: 2.0 mg/kg/injection, schedule: Q01DX009 (ip), vehicle: water); 163 % of control (dose: 4.0 mg/kg/injection, schedule: Q01DX009 (ip), vehicle: water); 159 % of control (dose: 5.0 mg/kg/injection, schedule: Q01DX001 (ip), vehicle: water). The T/C (dose: 10.0 mg/kg/injection, schedule: Q01DX001 (ip), vehicle: water) is 168 % of control and the T/C (dose: 20.0 mg/kg/injection, schedule: Q01DX001 (ip), vehicle: water) was 123 % of control.
For the molecule `Cc1ccc2nc3ccccc3cc2c1`, the T/C by setting is: (dose: 25.0 mg/kg/injection, schedule: Q04DX003 (ip), vehicle: saline with Tween-80) 104 % of control; (dose: 50.0 mg/kg/injection, schedule: Q04DX003 (ip), vehicle: saline with Tween-80) 100 % of control; (dose: 100.0 mg/kg/injection, schedule: Q04DX003 (ip), vehicle: saline with Tween-80) 95 % of control; (dose: 200.0 mg/kg/injection, schedule: Q04DX003 (ip), vehicle: saline with Tween-80) 99 % of control.
With `O=CNC(Cc1ccccc1)C(=O)O` (stereo not drawn), the T/C under setting [9] is 94 % of control and the T/C under setting [10] is 102 % of control.
Turning to `C=C1OC(C2CCCCC2)=C(C(=O)OCC)C1C` (stereo not drawn), the T/C by setting is: under setting [11], 100 % of control; under setting [12], 94 % of control; (dose: 400.0 mg/kg/injection, schedule: Q01DX001 (ip), vehicle: saline with Tween-80) 100 % of control.
Turning to `C/C=C1/CN2CCC1CC2C(O)c1ccnc2ccc(OCCO)cc12` (stereo not drawn), the T/C reads like this: (dose: 50.0 mg/kg/injection, schedule: Q01DX005 (ip), vehicle: saline) 97 % of control; (dose: 100.0 mg/kg/injection, schedule: Q01DX005 (ip), vehicle: saline) 93 % of control; (dose: 200.0 mg/kg/injection, schedule: Q01DX005 (ip), vehicle: saline) 94 % of control.
Regarding `O=S(=O)(O)C1CC2C(c3ccccc31)N1ON2O1` (stereo not drawn), the T/C is 102 % of control under setting [9]; 100 % of control under setting [10]; 100 % of control (dose: 200.0 mg/kg/injection, schedule: Q01DX005 (ip), vehicle: saline with Tween-80).
With `Cc1nn(C(=S)S)c(C)c1N=Nc1ccc([N+](=O)[O-])cc1`, the T/C by setting is: (dose: 25.0 mg/kg/injection, schedule: Q01DX005 (ip), vehicle: Klucel (hydroxypropylcellulose) (HPC)) 94 % of control; (dose: 50.0 mg/kg/injection, schedule: Q01DX005 (ip), vehicle: Klucel (hydroxypropylcellulose) (HPC)) 104 % of control; (dose: 100.0 mg/kg/injection, schedule: Q01DX005 (ip), vehicle: Klucel (hydroxypropylcellulose) (HPC)) 108 % of control.
Turning to `CC1(c2ccccc2)CCCC(C#N)C1=N` (stereo not drawn), the T/C reads like this: (dose: 12.5 mg/kg/injection, schedule: Q01DX001 (ip), vehicle: Klucel (hydroxypropylcellulose) (HPC)) 106 % of control; (dose: 25.0 mg/kg/injection, schedule: Q01DX001 (ip), vehicle: Klucel (hydroxypropylcellulose) (HPC)) 100 % of control; (dose: 50.0 mg/kg/injection, schedule: Q01DX001 (ip), vehicle: Klucel (hydroxypropylcellulose) (HPC)) 103 % of control.
For the molecule `O=C(NC(Cc1ccc([N+](=O)[O-])cc1)C(=O)O)c1ccccc1` (stereo not drawn), the T/C by setting is: under setting [6], 104 % of control; under setting [7], 110 % of control; under setting [8], 104 % of control.
For the molecule `CCN1C(=O)c2cccc([N+](=O)[O-])c2C1=O`, the T/C was 101 % of control under setting [4] and 104 % of control under setting [5].
As to `COCN(Cc1ccccc1)C[Si](C)(C)C`, the T/C runs as follows: under setting [11], 106 % of control; under setting [12], 99 % of control.
As for `NNC(=O)C1CCCC1`, the T/C was 113 % of control (dose: 6.25 mg/kg/injection, schedule: Q01DX009 (ip), vehicle: saline with Tween-80); 104 % of control (dose: 12.5 mg/kg/injection, schedule: Q01DX009 (ip), vehicle: saline with Tween-80); 100 % of control (dose: 25.0 mg/kg/injection, schedule: Q01DX009 (ip), vehicle: saline with Tween-80); 113 % of control under setting [1].
